The source of these data is paper PMC6718988, “Bioactivity and Bactericidal Mechanism of Histidine-Rich β-Hairpin Peptide Against Gram-Negative Bacteria” (International Journal of Molecular Sciences, 2019).

For one series, the system named is S. aureus ATCC29213. The experiment in a line: microbe, parasite or virus in culture. How it is done: (§1) The minimum inhibitory concentration (MIC) was measured using a broth microdilution method to determine the in vitro antimicrobial activity of the peptides. Bacteria were inoculated into MHB and incubated overnight at 37 °C until the bacteria were in log phase growth. Next, we corrected the bacterial concentration to approximately 1 × 10^5 CFU/mL using MHB. The peptides were added to 96-well plates containing 0.01% acetic acid and 0.2% bovine serum albumin at final concentrations ranging from 0.25 to 128 μM. After incubation at 37 °C for 24 h, the absorbance was measured at 492 nm using a microplate reader (Tecan GENios F129004, Tecan, Austria). Broth containing microbes and […] were used as positive and negative controls, respectively. The lowest peptide concentration with no increase in absorbance compared to that of the negative control was defined as the MIC. The experiments were independently performed three times.

A further series deals with E. coli UB1005. The experiment in a line: microbe, parasite or virus in culture. The protocol: as §1
The next series deals with E. coli K99. The experiment in a line: microbe, parasite or virus in culture. The following applies: E. coli K99; MHB, about 1 × 10^5 CFU/mL, 37 °C, 24 h; three independent experiments. The protocol: as §1
The test system of the next series is E. coli K88. The experiment in a line: microbe, parasite or virus in culture. The following applies: E. coli K88; MHB, about 1 × 10^5 CFU/mL, 37 °C, 24 h; three independent experiments. How it is done:
as §1

In another series the test system is S. epidermidis ATCC12228. The experiment in a line: microbe, parasite or virus in culture. How it is done:
as §1

The subject of series [1] is E. coli ATCC25922. The experiment in a line: microbe, parasite or virus in culture. The protocol:
as §1

The test system of series [2] is methicillin-resistant S. aureus ATCC43300. The experiment in a line: microbe, parasite or virus in culture. How it is done:
as §1

Another series deals with P. aeruginosa ATCC27853. The experiment in a line: microbe, parasite or virus in culture. How it is done: as §1
The next series relates to S. pullorum C7913. The experiment in a line: microbe, parasite or virus in culture. The protocol:
as §1

Series [3] has as its system E. coli ATCC25922. The experiment in a line: SEM characterization of cell morphology. It counts as cell-based. The settings on record: E. coli ATCC25922, 1 × MIC (HV2 8 μM, PG-1 4 μM), 1 h. How it is done: For the SEM sample preparation, E. coli ATCC25922 cells were cultured at 37 °C to mid-log phase in MH broth with constant shaking at 220 rpm, centrifuged at 1000 g and then adjusted to an OD600 of 0.1–0.2 in PBS. […] Bacteria incubated with PBS served as controls. After the incubation, the mixture was centrifuged at 5000 g for 5 min, and the collected bacteria were washed three times with PBS. Approximately 2.5% (w/v) glutaraldehyde was added for fixation at 4 °C overnight, followed by washing three times with PBS. The samples were dehydrated with 50%, 70%, 90%, 100% ethanol for 10 min. A mixture of ethanol and tert-butanol was added to the dried bacterial cells for 30 min, and then t-butanol was added for 1 h. Finally, the samples were dehydrated and coated with liquid CO2 in a critical point dryer and then observed using a Hitachi S-4800 SEM (Hitachi, Tokyo, Japan).

In series [4] the test system is Gram-positive and Gram-negative bacteria. The settings on record: all strains; 256 μM used where no activity at 128 μM. How it is done:
as §1

In a further series the test system is Gram-positive bacteria. The following applies: Gram-positive strains; 256 μM used where no activity at 128 μM. The protocol: as §1
Series [5] deals with E. coli ATCC25922. The experiment in a line: Salt sensitivity assay (MIC in presence of physiological salts). It counts as cell-based. Also on record: unit not given here. How it is done: Bacteria were inoculated into MHB and incubated overnight at 37 °C until the bacteria were in log phase growth. Next, we corrected the bacterial concentration to approximately 1 × 10^5 CFU/mL using MHB. […] After incubation at 37 °C for 24 h, the absorbance was measured at 492 nm using a microplate reader (Tecan GENios F129004, Tecan, Austria). Broth containing microbes and […] were used as positive and negative controls, respectively. The lowest peptide concentration with no increase in absorbance compared to that of the negative control was defined as the MIC. The experiments were independently performed three times. The effects of salt ions on the antibacterial activities of the antimicrobial peptides were evaluated. Different salt ion concentrations were added to BSA peptide dilutions, and the next steps followed the MIC measurement method. […] These tests were independently repeated three times.

In series [6] the test system is human red blood cells (hRBCs). The experiment in a line: Hemolytic activity. The following applies: 1 h, OD 570 nm; for hemolysis rate: at the highest concentration (128 μM), 1% hRBC in PBS, 37 °C, 0.1% Triton X-100 positive control; for MHC, minimum hemolytic concentration: concentration causing 5% hemolysis of hRBC, 1% hRBC in PBS pH 7.4, 37 °C, repeated three times.
Method: Briefly, collected human red blood cells (hRBCs) were washed three times with PBS (pH 7.4) and diluted to 1% in PBS. Next, equal volumes of blood cells were mixed with different peptide concentrations in 96-well plates followed by incubated at 37 °C for 1 h. The mixtures were centrifuged (1000 g, 5 min), and the supernatants were transferred to 96-well plates to measure the optical density (OD) at 570 nm. Untreated blood cells were used as negative controls, and 0.1% Triton X-100-treated blood cells were used as positive controls. The minimum peptide concentration corresponding to 5% hemolytic activity was defined as the minimal hemolytic concentration (MHC). These assays were independently repeated three times.

A further series concerns Gram-negative bacteria. The experiment in a line: MICs against Gram-negative strains (geometric mean, range). The format is cell-based. The settings on record: Gram-negative strains; 256 μM used where no activity at 128 μM. How it is done: as §1
Series [7] relates to E. coli ATCC25922. The experiment in a line: Swimming motility assay. The format is cell-based. The following applies: E. coli ATCC25922, 0.3% agar, 1–8 μM peptide, 37 °C, 20 h; versus untreated control. The protocol:
The cell motility assay was performed on LB medium containing 0.3% agar. The peptides were added to 10 mL of medium at final concentrations of 1–8 μM. After mixing well, the mixtures were poured into 6-well plates and dried for 2 h. Subsequently, an overnight culture of E. coli ATCC 25922 was inoculated in the center of the movement plate. After incubation at 37 °C for 20 h, images were taken using a FluoroChemQ system (Cell biosciences, San Jose, CA, USA). The experiment was independently repeated three times.

Series [8] in a line: RP-HPLC retention time as measure of hydrophobicity. The format is physicochemical. The settings on record: analytical Kromasil C18 column 4.6 mm × 250 mm, 5.0 μm, acetonitrile, flow 1.0 mL/min, used as measure of hydrophobicity. The protocol:
The hydrophobicities of the peptides in solution were reliably mirrored by their high-performance liquid chromatography (HPLC)retention times. The retention times for peptide HI2, HW2, HV2, HF2, and PG-1 were 11.13, 10.55, 12.20, 18.06 and 12.56 min, respectively, indicating the following hydrophobic order: HF2 > PG-1 > HV2 > HI2 > HW2(Table 1).
The designed peptides were synthesized and purified by GL Biochem (Shanghai, China). Acetonitrile was used on an analytical Kromasil C18 column (4.6 mm × 250 mm, 5.0 μm, LC 3000, Beijing, China), and the purity of the peptides was determined to be greater than 95% via reversed-phase high-performance liquid chromatography (RP-HPLC) with a flow rate of 1.0 mL/min. The experimental molecular weights of the peptides were evaluated via ESI-MS analysis, and these values were very close to the calculated masses. Next, the peptides were dissolved in deionized water at a concentration of 2.56 mM, and the peptide solutions were stored at −20 °C.

Series [9] in a line: LPS binding assay (BODIPY-TR-cadaverine displacement). Also on record: species or system E. coli. The following applies: peptide concentration higher than 4 μM; 50 μg/mL LPS, 5 μg/mL BODIPY-TR cadaverine, Tris 50 mM pH 7.4; 100% = 10 μg/mL polymyxin B. The protocol:
The abilities of the antimicrobial peptides to bind LPS were determined using the fluorescent dye BODIPY-TR-cadaverine (BC) substitution method. LPS (50 μg/mL) from E. coli O111:B4 was incubated with BC (5 μg/mL) in Tris buffer (50 mm, pH 7.4) for 4 h. Next, 50 μL of various concentrations of peptides (final concentration of 1–64 μM) and 50 μL of LPS-BC mixture were added to 96-well plates, and the fluorescence was measured using a fluorescence spectrophotometer (Infinite 200 pro, Tecan, China) at an excitation wavelength of 580 nm and an emission wavelength of 620 nm. Each test was performed three times. The values were converted to %∆F (AU) using the following equation:%ΔF (AU) = [(Fobs − F0)/(F100 − F0)] × 100 where Fobs is the fluorescence value measured in the presence of the peptide, F0 is the initial fluorescence of LPS with BC without the addition of peptides, F100 is the fluorescence value produced by adding 10 μg/mL polymyxin B.

Converted amounts (≈) assume the structure as drawn. Where a SMILES comes first, the peptide text is derived from it. [ ]: non-standard residue; d: D form.

For “RGGRLCYCRRFCVCVGR-NH2 [PG-1, Protegrin-1, reference compound]”, the MIC against S. aureus ATCC29213 (S.aureus 29213, MHB, about 1 × 10^5 CFU/mL, 37 °C, 24 h, three independent experiments) came to 2 µM; in the series on E. coli UB1005 (E. coli UB1005, MHB, about 1 × 10^5 CFU/mL, 37 °C, 24 h, three independent experiments) it was 2 µM; against E. coli K99, 2 µM; against E. coli K88 it was 2 µM; in the series on S. epidermidis ATCC12228 (S.epidermidis 12228, MHB, about 1 × 10^5 CFU/mL, 37 °C, 24 h, three independent experiments), 8 µM; against E. coli ATCC25922 [1] (E. coli 25922, MHB, about 1 × 10^5 CFU/mL, 37 °C, 24 h, 0.25-128 μM, three independent experiments), 4 µM. For the same compound, the MIC in series [2] (S.aureus 43300 (methicillin-resistant), MHB, about 1 × 10^5 CFU/mL, 37 °C, 24 h, three independent experiments) was 8 µM; in the series with P. aeruginosa ATCC27853 (P. auruginosa 27853, MHB, about 1 × 10^5 CFU/mL, 37 °C, 24 h, three independent experiments) it was 8 µM; against S. pullorum C7913 (S.pullorum C7913, MHB, about 1 × 10^5 CFU/mL, 37 °C, 24 h, three independent experiments) it was 4 µM. Also, in the series with E. coli ATCC25922 [3], the “cell morphology by SEM” value is “rough and wrinkled”. Moreover, the “MBC (GM), geometric mean of MICs, Gram (+,−)” value in [4] was determined as 3.70 µM. The “MBC (GM), geometric mean of MICs, Gram (+)” value with Gram-positive bacteria came to 5.04 µM. The “MIC, FeCl3” value with E. coli ATCC25922 [5] (E. coli ATCC25922, 4 μM FeCl3, unit not given) turned out to be 4. Besides, the “MIC, NH4Cl” value in the series with E. coli ATCC25922 [5] (E. coli ATCC25922, 6 μM NH4Cl, unit not given) was determined as 4. Further, in the series with E. coli ATCC25922 [5] (E. coli ATCC25922, 8 μM ZnCl2, unit not given), the “MIC, ZnCl2” value is 2. For the same compound, in the series on E. coli ATCC25922 [5] (E. coli ATCC25922, 1 mM MgCl2, unit not given), the “MIC, MgCl2” value amounted to 4. Also, the “MIC, KCl” value in the series on E. coli ATCC25922 [5] (E. coli ATCC25922, 4.5 mM KCl, unit not given) amounted to 4. In the series on E. coli ATCC25922 [5] (E. coli ATCC25922, 150 mM NaCl, unit not given), the “MIC, NaCl” value is 4. In the series on E. coli ATCC25922 [5] (E. coli ATCC25922, absence of physiological salts, no unit printed in Table 3 (Table 2 MIC in μM)), the “MIC, Control” value worked out at 4. In [6], this compound yielded a hemolysis rate of 48.13%. The “MHC, minimum hemolytic concentration” value in [6] amounted to 4 µM. Besides, in the series on Gram-negative bacteria, the “MBC (GM), geometric mean of MICs, Gram (−)” value was found to be 3.17 µM. The “swimming motility (diameter of swimming bacteria)” value in the series on E. coli ATCC25922 [7] is listed as “significantly reduced the diameter of the swimming bacteria”. The “Retention Time” value in [8] came to 12.56 min.
Regarding `N=C(N)NCCC[C@H](NC(=O)[C@H](CCCNC(=N)N)NC(=O)[C@H](Cc1c[nH]c2ccccc12)NC(=O)[C@H](Cc1c[nH]cn1)NC(=O)[C@H](Cc1c[nH]c2ccccc12)NC(=O)[C@H](Cc1c[nH]cn1)NC(=O)[C@H](Cc1c[nH]c2ccccc12)NC(=O)CNC(=O)[C@H]1CCCN1C(=O)[C@H](Cc1c[nH]c2ccccc12)NC(=O)[C@H](Cc1c[nH]cn1)NC(=O)[C@H](Cc1c[nH]c2ccccc12)NC(=O)[C@H](Cc1c[nH]cn1)NC(=O)[C@H](Cc1c[nH]c2ccccc12)NC(=O)[C@H](CCCNC(=N)N)NC(=O)[C@@H](N)CCCNC(=N)N)C(N)=O` [HW2] (H-RRWHWHW[dP]GWHWHWRR-NH2; N-terminus assumed), the MIC stood at 4 µM (≈ 9.85 µg/mL) in the series with S. aureus ATCC29213 (ATCC29213, 24 h); 2 µM (≈ 4.92 µg/mL) in the series with E. coli UB1005 (UB1005, 24 h); 4 µM (≈ 9.85 µg/mL) against E. coli K99; 4 µM (≈ 9.85 µg/mL) with E. coli K88; 2 µM (≈ 4.92 µg/mL) with S. epidermidis ATCC12228 (ATCC12228, 24 h); 4 µM (≈ 9.85 µg/mL) in the series with E. coli ATCC25922 [1] (ATCC25922, 24 h). The MIC in series [2] (ATCC43300, 24 h) was determined as 2 µM (≈ 4.92 µg/mL); in the series with P. aeruginosa ATCC27853 (ATCC27853, 24 h) it was 8 µM (≈ 19.7 µg/mL); against S. pullorum C7913 (C7913, 24 h), 2 µM (≈ 4.92 µg/mL). In addition, the “LPS binding ability relative to binding activity of polymyxin B” value in series [9] was “higher than 60%”. The “MBC (GM), geometric mean of MICs, Gram (+,−)” value in series [4] came out at 3.17 µM. For the same compound, the “MBC (GM), geometric mean of MICs, Gram (+)” value in the series with Gram-positive bacteria was determined as 2.52 µM. The compound further had a hemolysis rate in [6] of 15.58%. The “MHC, minimum hemolytic concentration” value in series [6] is listed as 8 µM. In the series on Gram-negative bacteria, the “MBC (GM), geometric mean of MICs, Gram (−)” value turned out to be 3.56 µM. Also, the “Retention Time” value in series [8] is listed as 10.55 min.
